# Reference: ChEMBL document CHEMBL4251694 (ACS Med Chem Lett, 2018)
# Assays:
# Influenza A virus = assay: Antiviral activity against Influenza A virus A/WSN/33 H1N1 harboring N31S mutant infected in MDCK cells assessed as reduction in virus-induced cytopathic effect by crystal violet staining based light-microscopic analysis; format: functional, organism-based, A/WSN/1933(H1N1)
# [1] = molecular target: Matrix protein 2 (Influenza A virus (A/Udorn/307/1972(H3N2)), UniProt P0DOF8, S31N); assay: Binding affinity to Influenza A virus A/Udorn/72 M2 proton channel S31N mutant expressed in Xenopus laevis oocytes at pH 5.5 by two-electrode voltage clamp assay; format: cell-based, Influenza A virus (A/udorn/1972(H3N2))
# [2] = molecular target: Matrix protein 2 (Influenza A virus (A/Udorn/307/1972(H3N2)), UniProt P0DOF8, S31N); assay: Binding affinity to Influenza A virus A/Udorn/72 M2 proton channel S31N mutant by isothermal calorimetric titration; parameters: species or system Influenza A virus (A/udorn/1972(H3N2))
SMILES,EC50 (Influenza A virus) [µM],Kd [1] [µM],Kd [2] [µM]
CC(C)(N)C12CC3CC(CC(C3)C1)C2,0.03,444,–
CCOC(=O)C1=C[C@@H](OC(CC)CC)[C@H](NC(C)=O)[C@@H](N)C1 [OSELTAMIVIR],0.02,–,–
C[C@H](N)C12CC3CC(CC(C3)C1)C2,0.02,–,–
CC(N)C12CC3CC(CC(C3)C1)C2 (stereo unspecified) [RIMANTADINE],0.04,–,–
C[C@@H](N)C12CC3CC(CC(C3)C1)C2,0.04,–,–
NC12CC3CC(CC(C3)C1)C2 [AMANTADINE],0.48,–,–
CCCC(N)(CCC)C12CC3CC(CC(C3)C1)C2,1.06,1800,> 10
CCC(N)(CC)C12CC3CC(CC(C3)C1)C2,1.01,–,–
